Drawing on ChEMBL document CHEMBL3612053, “Discovery and SAR study of 3-(tert-butyl)-4-hydroxyphenyl benzoate and benzamide derivatives as novel farnesoid X receptor (FXR) antagonists” (Bioorg Med Chem, 2015), this text covers IC50, half-life and Ratio IC50 for 39 compounds.

One series has as its target T1, Bile acid receptor (Homo sapiens, UniProt Q96RI1).
T1 sequence (Q96RI1 whole entry): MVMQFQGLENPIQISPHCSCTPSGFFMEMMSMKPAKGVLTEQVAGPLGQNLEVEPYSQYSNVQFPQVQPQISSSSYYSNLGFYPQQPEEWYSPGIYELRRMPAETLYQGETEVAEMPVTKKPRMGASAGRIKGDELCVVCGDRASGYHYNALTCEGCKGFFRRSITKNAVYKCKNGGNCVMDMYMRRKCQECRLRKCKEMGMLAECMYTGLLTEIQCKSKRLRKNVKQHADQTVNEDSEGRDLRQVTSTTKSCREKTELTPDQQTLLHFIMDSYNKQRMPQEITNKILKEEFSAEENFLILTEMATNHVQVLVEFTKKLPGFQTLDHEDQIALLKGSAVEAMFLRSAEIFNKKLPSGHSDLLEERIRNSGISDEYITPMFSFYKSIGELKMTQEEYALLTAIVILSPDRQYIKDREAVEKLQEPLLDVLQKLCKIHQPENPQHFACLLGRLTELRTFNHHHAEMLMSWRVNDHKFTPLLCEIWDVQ
The series can be described thus: Antagonist activity at GST-tagged FXR LBD (unknown origin) assessed as inhibition of CDCA-induced Bio-SRC-1 recruitment after 30 mins by HTRF assay.

The nature of series [1]: Half life in serum (unknown origin). It is filed as ADME, cell-free.
Series [2] concerns the target T2, Bile acid receptor (Homo sapiens) (UniProt Q96RI1).
T2 sequence (whole entry): T1 sequence (Q96RI1 whole entry)
The series can be described thus: Potency index, ratio of guggulsterone IC50 to compound IC50 for GST-tagged FXR LBD (unknown origin).

With `COc1ccccc1C(=O)Oc1ccc(O)c(C(C)(C)C)c1`, the IC50 on Bile acid receptor was over 100 µM. For the same compound, the half-life in series [1] was under 15 min.
For `CC(C)(C)c1cc(NC(=O)c2c(Cl)cc(N)cc2Cl)ccc1O`, in that order: 5.2 µM and over 60 min.
On to `CNc1cc(Cl)c(C(=O)Nc2ccc(O)c(C(C)(C)C)c2)c(Cl)c1`, for which the IC50 on Bile acid receptor came to 13.9 µM. Moreover, the half-life in series [1] is over 60 min.
For `CC(C)(C)c1cc(OC(=O)c2c(Cl)cc([N+](=O)[O-])cc2Cl)ccc1O`, in that order: 5.9 µM and under 15 min.
The like results for `CC(C)(C)c1cc(OC(=O)c2ccc(Cl)cc2Cl)ccc1O` were, in that order, 10.2 µM and 10 min.
The like results for `CC(C)(C)c1cc(OC(=O)c2ccc(Cl)cc2)ccc1O` were, in that order, over 100 µM and under 15 min.
For `CC(C)(C)c1cc(OC(=O)c2ccc(N)cc2Cl)ccc1O`, the IC50 on Bile acid receptor stood at 7.2 µM. In series [1], this compound yielded a half-life of under 15 min.
The like results for `CC(C)(C)c1cc(NC(=O)c2ccc(Cl)cc2Cl)ccc1O` were, in that order, 13.6 µM and over 60 min.
The like results for `COc1ccc(NC(=O)c2ccc(Cl)cc2Cl)cc1C(C)(C)C` were, in that order, over 100 µM and over 60 min.
In the case of `CC(C)(C)c1cc(OC(=O)/C=C/c2ccccc2)ccc1O`, the IC50 on Bile acid receptor was over 100 µM. Moreover, in series [1], the half-life was under 15 min.
Turning to `CC(C)c1cc(NC(=O)c2ccc(Cl)cc2Cl)ccc1O`, at Bile acid receptor, the IC50 was over 100 µM. In series [1], the half-life was over 60 min.
With `CN(C)c1cc(Cl)c(C(=O)N(C)c2ccc(O)c(C(C)(C)C)c2)c(Cl)c1`, the half-maximal inhibitory concentration (IC50) at Bile acid receptor was 3.9 µM. The same compound registered a half-life in series [1] of over 60 min.
For `CCc1cc(NC(=O)c2ccc(Cl)cc2Cl)ccc1O`, in that order: over 100 µM and over 60 min.
The like results for `CC(C)(C)c1cc(OC(=O)c2ccc([N+](=O)[O-])cc2)ccc1O` were, in that order, 12.7 µM and under 15 min.
Consider `CC(C)(C)c1cc(NC(=O)c2c(Cl)cc(N3CCCCC3)cc2Cl)ccc1O`, for which the IC50 on Bile acid receptor is over 100 µM. Moreover, the half-life in series [1] is over 60 min.
For `CC(C)(C)c1cc(OC(=O)c2ccc(N)cc2)ccc1O`, in that order: 34.2 µM and under 15 min.
For `CN(C)c1cc(Cl)c(C(=O)N(CC2CCCCC2)c2ccc(O)c(C(C)(C)C)c2)c(Cl)c1`, in that order: over 100 µM and over 60 min.
Take `CC(C)(C)c1cc(NC(=O)c2ccc(Cl)cc2Cl)cc(C(C)(C)C)c1O`: the IC50 on Bile acid receptor was over 100 µM. The half-life in series [1] is over 60 min.
For `C=CCOc1ccc(NC(=O)c2ccc(Cl)cc2Cl)cc1C(C)(C)C`, in that order: over 100 µM and over 60 min.
For `CC(C)(C)c1cc(NC(=O)c2c(Cl)cc(NCc3ccncc3)cc2Cl)ccc1O`, in that order: 9.8 µM and over 60 min.
In the case of `Cc1ccccc1C(=O)Oc1ccc(O)c(C(C)(C)C)c1`, the IC50 on Bile acid receptor is over 100 µM. In addition, the half-life in series [1] was under 15 min.
As to `CC(C)(C)c1cc(OC(=O)Cc2ccccc2)ccc1O`, at Bile acid receptor, the IC50 was over 100 µM. Also, the half-life in series [1] was under 15 min.
For `CC(C)(C)c1cc(OC(=O)c2ccco2)ccc1O`, the IC50 at Bile acid receptor was over 100 µM. In series [1], this compound had a half-life of under 15 min.
As to `CC(C)(C)c1cc(NC(=O)c2c(Cl)cc(NCc3cccs3)cc2Cl)ccc1O`, the IC50 at Bile acid receptor turned out to be 8.6 µM. In series [1], this compound yielded a half-life of over 60 min.
With `CC(C)(C)c1cc(OC(=O)c2c(Cl)cc(N)cc2Cl)ccc1O`, on Bile acid receptor, the IC50 is 0.6 µM. For the same compound, the Ratio IC50 in series [2] was 100. Besides, the half-life in series [1] was under 15 min.
Regarding `CCNc1cc(Cl)c(C(=O)Nc2ccc(O)c(C(C)(C)C)c2)c(Cl)c1`, at Bile acid receptor, the IC50 worked out at 28.7 µM. For the same compound, in series [1], the half-life is over 60 min.
For `CC(C)(C)c1cc(NC(=O)c2c(Cl)cc(NCc3cccnc3)cc2Cl)ccc1O`, in that order: 3.6 µM and over 60 min.
As for `CC(C)(C)c1cc(NC(=O)c2c(Cl)cc(NC3CCCC3)cc2Cl)ccc1O`, the IC50 at Bile acid receptor was determined as 5 µM. The half-life in series [1] was over 60 min.
For `CN(C)c1cc(Cl)c(C(=O)Nc2ccc(O)c(C(C)(C)C)c2)c(Cl)c1`, in that order: 1.4 µM and over 60 min.
For `CN(C)c1cc(Cl)c(C(=O)N(Cc2cccnc2)c2ccc(O)c(C(C)(C)C)c2)c(Cl)c1`, on Bile acid receptor, the IC50 is 6.3 µM. The same compound had a half-life in series [1] of over 60 min.
`CN(c1cc(Cl)c(C(=O)Nc2ccc(O)c(C(C)(C)C)c2)c(Cl)c1)C1CCCCC1`: the IC50 on Bile acid receptor is over 100 µM. The compound further displayed a half-life in series [1] of over 60 min.
The like results for `Cc1ccc(C(=O)Oc2ccc(O)c(C(C)(C)C)c2)cc1` were, in that order, over 100 µM and under 15 min.
The like results for `Cc1cc(NC(=O)c2ccc(Cl)cc2Cl)ccc1O` were, in that order, over 100 µM and over 60 min.
For `CC(C)(C)c1cc(NC(=O)c2c(Cl)cc(N3CCNCC3)cc2Cl)ccc1O`, in that order: over 100 µM and over 60 min.
Regarding `CC(C)(C)c1cc(OC(=O)c2ccccc2)ccc1O`, the IC50 at Bile acid receptor was over 100 µM. The compound also displayed a half-life in series [1] of under 15 min.
For `CN(C)c1cc(Cl)c(C(=O)N(c2ccc(O)c(C(C)(C)C)c2)C2CCCCC2)c(Cl)c1`, the IC50 at Bile acid receptor was over 100 µM. For the same compound, the half-life in series [1] is over 60 min.
Regarding `CC(C)(C)c1cc(NC(=O)c2c(Cl)cc(NC3CCCCC3)cc2Cl)ccc1O`, the IC50 on Bile acid receptor came out at 2.5 µM. In addition, in series [1], the half-life is over 60 min.
For `CC(=O)Oc1ccc(NC(=O)c2ccc(Cl)cc2Cl)cc1C(C)(C)C`, in that order: 15.5 µM and over 60 min.
As to `CC(C)(C)c1cc(OC(=O)c2ccc([N+](=O)[O-])cc2Cl)ccc1O`, on Bile acid receptor, the IC50 worked out at 8.8 µM. The compound also showed a half-life in series [1] of under 15 min.
